Laboratory results: patent publication US20150064273A1, “Mesenchymal Stem Cells Conditioned Medium and Methods of Generating and Using the Same” (Gamida-Cell Ltd., priority 2012, published 2015)

Columns and labels:
Format in all cases: cell-based
[1] = tested on: Keratinocyte Growth Factor (KGF); experiment: KGF content of MSC conditioned medium by ELISA; conditions: passage 4; 5 mM NAM, 50 ng/ml FGF4; serum- and FGF4-free medium for 24 hours
Description: FIG. 24 is a bar graph illustrating enhancement of Keratinocyte Growth Factor (KGF) content of conditioned medium from nicotinamide and FGF4-treated MSC cultures. Bone marrow mesenchymal stem cells were isolated and cultured as in FIG. 22 above. Cultured media was changed to medium without fetal bovine serum or FGF4 24 hours prior to passage 4, collected from the passage 4 cultures and assayed for KGF content by ELISA. −NAM, −FGF4=control; +NAM−FGF4=5 mM NAM, +NAM+FGF4=5 mM NAM+50 ng/ml FGF4. Note the significant effect of combined FGF4 and nicotinamide on KGF secretion; Mesenchymal stem cells cultured with nicotinamide and FGF4 have enhanced expansion potential, and maintain an undifferentiated state, compared to mesenchymal stem cells cultured in unsupplemented medium, or mesenchymal stem cells cultured with added nicotinamide alone. In order to assess whether mesenchymal stem cells cultured with nicotinamide or nicotinamide and FGF4 modify the culture medium in a unique manner, secretion of biologically active molecules into the culture medium was measured by ELISA, after depletion of the FGF4 from the medium.

[2] = tested on: mesenchymal stem cells; experiment: Senescence evaluation assay of cultured MSCs; conditions: MSCs cultured with nicotinamide
Description: Senescence evaluation assay: Cultured MSCs were stained using the Senescence beta-Galactosidase Staining Kit (Cell Signaling). The cells are fixed and stained for detection of beta-Galactosidase activity at pH 6 using X-Gal and incubation overnight in 37° C. in dry incubator.

[3] = tested on: adipose derived mesenchymal stem cells; experiment: Adipose tissue derived MSC expansion and cell size with nicotinamide, with or without FGF4; conditions: 5 mM NAM, 50 ng/ml FGF4
Description: FIG. 15 is a graph illustrating the effect of nicotinamide, with and without FGF4 on adipose-derived MSC proliferation, through 4 passages of culture. Adipose derived mesenchymal stem cells were isolated using collagenase digestion and plastic adherence method, and cultured for several passages with fetal bovine serum. −NAM−FGF4=controls (blue diamonds), +NAM−FGF4=culture with 5 mM NAM (red squares), +NAM+FGF4=culture with 50 ng/ml FGF4 and 5 mM NAM (green triangles). Note the synergic effect of Nicotinamide and FGF4 added together on adipose-derived MSC proliferation; FIG. 16 is a graph detailing the effect of nicotinamide, with and without FGF4 on nucleated cell proliferation in adipose-derived MSC proliferation at passage 4. Adipose-derived mesenchymal stem cells were isolated and cultured as described in FIG. 15. −NAM−FGF4=controls, +NAM−FGF4=culture with 5 mM NAM, +NAM+FGF4=culture with 50 ng/ml FGF4 and 5 mM NAM. […] Cell size was analyzed by Cedex cell counter. −NAM−FGF4=controls, +NAM−FGF4=culture with 5 mM NAM, +NAM+FGF4=culture with 50 ng/ml FGF4 and 5 mM NAM. Note the smaller size of MSC cells grown in the presence of nicotinamide, and even smaller MSCs grown with nicotinamide and FGF4; Proliferation and cell size distribution in adipose-derived mesenchymal stem cells cultured with nicotinamide with or without additional FGF4 was assessed in up to 4 passages of the cultures.

[4] = tested on: mesenchymal stem cells; experiment: Mesenchymal stem cell culture with growth factors with or without nicotinamide, cell counts
Description: Isolation: Bone marrow derived and adipose tissue derived mesenchymal cells were isolated based on their plastic adherence potential in expansion medium containing: High glucose DMEM and 10% Fetal Bovine Serum (FBS, Hyclone, Logan, Utah, USA) supplemented with 0.05 mg/ml Gentamicin (Sigma) and 2 mM L-glutamine (Biological Industries, Israel). Cells were allowed to adhere for 3-4 days and non-adherent cells were washed out with medium changes. The medium was further exchanged with fresh medium every 3-4 days.
Maintenance and expansion: Once adherent cells reached approximately 80-90% confluency, they were detached with 0.25% trypsin-EDTA (Sigma), washed twice in DMEM and 10% Fetal Bovine Serum, with centrifugation, 400 g, 5 minutes, and re-plated at a 1:2 to 1:1000 dilution under the same culture conditions.
Measurement of number of cells in culture: Cell number was measured using Cedex Automated Cell Counter (Innovatis). The cells were diluted 1:2 in Trypan Blue (Sigma) and cell number was measured automatically under microscope.
Treatment of mesenchymal cultures with nicotinamide: Mesenchymal cultures were initiated as described above, and supplemented with nicotinamide 1-15 mM alone, or in combination with growth factors or growth factors alone, incubated at 37° C. in a humidified atmosphere of 5% CO2 in air. At each passage and at each medium exchange, the cultures were supplemented with mesenchymal medium, nicotinamide and growth factors.
Mesenchymal stem cells were selected and cultured in the presence of particular growth factors (basic fibroblast growth factor—bFGF, heparin binding epidermal growth factor—HB-EGF, fibroblast growth factor 4—FGF-4 and platelet derived growth factor, homodimer, subunit B, PDGF-BB) in the presence and absence of nicotinamide for three or four passages and the number and size of the cells was calculated.
Two concentrations (10 and 50 ng/ml) of each one of the following factors were examined.
In addition, the influence of the combination: 5 mM NAM+50 ng/ml FGF4+50 ng/ml PDGF-BB was examined in comparison to an individual supplement.

[5] = tested on: IL-6; experiment: IL-6 content of MSC conditioned medium by ELISA; conditions: passage 4; 5 mM NAM, 50 ng/ml FGF4; serum- and FGF4-free medium for 24 hours
Description: FIG. 25 is a bar graph illustrating reduction of cytokine IL-6 (IL-6) content of conditioned medium from nicotinamide and FGF4-treated MSC cultures. Bone marrow mesenchymal stem cells were isolated and cultured as in FIG. 22 above. Cultured media was changed to medium without fetal bovine serum or FGF4 24 hours prior to passage 4, collected from the passage 4 cultures and assayed for IL-6 content by ELISA. −NAM, −FGF4=control; +NAM−FGF4=5 mM NAM, +NAM+FGF4=5 mM NAM+50 ng/ml FGF4. […] In order to assess whether mesenchymal stem cells cultured with nicotinamide or nicotinamide and FGF4 modify the culture medium in a unique manner, secretion of biologically active molecules into the culture medium was measured by ELISA, after depletion of the FGF4 from the medium.

NC(=O)c1cccnc1 [nicotinamide, Nicotinamide]
KGF level in conditioned medium [1]: elevated levels | number of senescent cells following culture [2]: reduced | size of the expanded adipose-derived mesenchymal stem cells ([3]; Cedex cell counter): enhanced growth of populations of smaller (less differentiated) cells | adipose derived mesenchymal stem cell expansion in culture ([3]; up to 4 passages): substantially improved | effect on the ability of FGF4 to increase proliferation of mesenchymal stem cells ([4]; 5 mM NAM with FGF4 50 ng/ml): potentiating effect | proliferative capacity of large batches of MSCs ([4]; cultured with nicotinamide): enhanced proliferative capacity | IL-6 secreted into conditioned medium [5]: reduction
